Source: ChEMBL document CHEMBL1145985, “Poly(ethylene glycol) transport forms of vancomycin: a long-lived continuous release delivery system” (J Med Chem, 2003)
Values after ≈ are worked out from the molar mass of the structure shown.

Legend:
[1] = Area under the curve measured after intravenous bolus administration of 50 mg/kg of compound to rats; format: ADME, organism-based; design: dose 50 mg/kg, route intravenous; details: rat, in vivo
[2] = Solubility was measured in saline at 25 degree C; format: physicochemical
[3] = Maximum plasma concentration measured after intravenous bolus administration of 50 mg/kg of compound to rats; format: ADME, organism-based; design: dose 50 mg/kg, route intravenous; details: rat
[4] = (§1) Volume of distribution at a steady state measured after intravenous bolus administration of 50 mg/kg of compound to rats; format: ADME, organism-based; design: dose 50 mg/kg, route intravenous; details: rat, in vivo, read-out: Vss
[5] = Half-life in human plasma; format: ADME, cell-free
[6] = (§2) Circulatory half life measured after intravenous bolus administration of 50 mg/kg of compound to rats; format: ADME, organism-based; design: dose 50 mg/kg, route intravenous; details: rat, in vivo
Mus musculus [7] = species: Mus musculus; assay: Anti-microbial activity against Staphylococcus aureus measured as percent survival of mice 1 hr post challenge; format: functional; design: concentration or dose not given beside the values
[8] = (§3) Clearance measured after intravenous bolus administration of 50 mg/kg of compound to rats; format: ADME, organism-based; design: dose 50 mg/kg, route intravenous; details: rat, in vivo
[9] = Half-life in rat plasma; format: ADME, organism-based
Rattus norvegicus [10] = assay: as §1; format: ADME, organism-based; design: dose 50 mg/kg, route intravenous; details: in vivo
Rattus norvegicus [11] = assay: as §2; format: ADME, organism-based; design: dose 50 mg/kg, route intravenous; details: in vivo
Rattus norvegicus [12] = assay: as §3; format: ADME, organism-based; design: dose 50 mg/kg, route intravenous; details: in vivo
Mus musculus [13] = species: Mus musculus; assay: Anti-microbial activity against Staphylococcus aureus measured as percent survival of mice after pre challenge; format: functional

SMILES	AUC [1]	solubility [2]	Cmax [3]	Vd [4]	half-life [5]	half-life [6]	Survival (Mus musculus [7])	clearance ([8]; read-out: CL (converted))	half-life [9]	Vss (Rattus norvegicus [10])	T1/2 (Rattus norvegicus [11])	CL (Rattus norvegicus [12])	Survival (Mus musculus [13])	clearance [8]
CN[C@H](CC(C)C)C(=O)N[C@H]1C(=O)N[C@@H](CC(N)=O)C(=O)N[C@H]2C(=O)N[C@H]3C(=O)N[C@H](C(=O)N[C@H](C(=O)O)c4cc(O)cc(O)c4-c4cc3ccc4O)[C@H](O)c3ccc(c(Cl)c3)Oc3cc2cc(c3OC2OC(CO)C(O)C(O)C2OC2CC(C)(NC(=O)OCc3cc(C)c(OC(=O)CNC(=O)COCCO)c(C)c3)C(O)C(C)O2)Oc2ccc(cc2Cl)[C@H]1O (some centres undefined)	386 µg·h/mL	145 mg/mL (≈ 81.2 mM)	25.5 µg/mL	2.72 L/kg	27 h	10.5 h	100%	2.19 mL/min/kg	19 h					
CN[C@H](CC(C)C)C(=O)N[C@H]1C(=O)N[C@@H](CC(N)=O)C(=O)N[C@H]2C(=O)N[C@H]3C(=O)N[C@H](C(=O)N[C@H](C(=O)O)c4cc(O)cc(O)c4-c4cc3ccc4O)[C@H](O)c3ccc(c(Cl)c3)Oc3cc2cc(c3OC2OC(CO)C(O)C(O)C2OC2CC(C)(NC(=O)OCc3cc(C)c(OC(=O)NCCOCCOCCNC(=O)CNC(=O)CC(NC(=O)COCCO)C(=O)NCC(=O)NCCOCCOCCNC(=O)Oc4c(C)cc(COC(=O)NC5(C)CC(OC6C(Oc7c8cc9cc7Oc7ccc(cc7Cl)[C@@H](O)[C@@H](NC(=O)[C@@H](CC(C)C)NC)C(=O)N[C@@H](CC(N)=O)C(=O)N[C@H]9C(=O)N[C@H]7C(=O)N[C@H](C(=O)N[C@H](C(=O)O)c9cc(O)cc(O)c9-c9cc7ccc9O)[C@H](O)c7ccc(c(Cl)c7)O8)OC(CO)C(O)C6O)OC(C)C5O)cc4C)c(C)c3)C(O)C(C)O2)Oc2ccc(cc2Cl)[C@H]1O (some centres undefined)	2180 µg·h/mL	141 mg/mL (≈ 36 mM)	107 µg/mL		> 24 h		100%		36 h	1.341 L/kg	14.2 h	0.383 mL/min/kg		
CN[C@H](CC(C)C)C(=O)N[C@H]1C(=O)N[C@@H](CC(N)=O)C(=O)N[C@H]2C(=O)N[C@H]3C(=O)N[C@H](C(=O)N[C@H](C(=O)O)c4cc(O)cc(O)c4-c4cc3ccc4O)[C@H](O)c3ccc(c(Cl)c3)Oc3cc2cc(c3OC2OC(CO)C(O)C(O)C2OC2CC(C)(NC(=O)OCc3cc(C)c(OC(=O)C(C)NC(=O)COCCO)c(C)c3)C(O)C(C)O2)Oc2ccc(cc2Cl)[C@H]1O (some centres undefined)	282 µg·h/mL	122 mg/mL (≈ 67.8 mM)	47.9 µg/mL		> 24 h		100%		16 h	2.6408 L/kg	4.09 h	2.972 mL/min/kg	80%	
CN[C@H](CC(C)C)C(=O)N[C@H]1C(=O)N[C@@H](CC(N)=O)C(=O)N[C@H]2C(=O)N[C@H]3C(=O)N[C@H](C(=O)N[C@H](C(=O)O)c4cc(O)cc(O)c4-c4cc3ccc4O)[C@H](O)c3ccc(c(Cl)c3)Oc3cc2cc(c3OC2OC(CO)C(O)C(O)C2OC2CC(C)(NC(=O)OCc3cc(C)c(OC(=O)CNC(=O)CC(NC(=O)COCCO)C(=O)NCC(=O)Oc4c(C)cc(COC(=O)NC5(C)CC(OC6C(Oc7c8cc9cc7Oc7ccc(cc7Cl)[C@@H](O)[C@@H](NC(=O)[C@@H](CC(C)C)NC)C(=O)N[C@@H](CC(N)=O)C(=O)N[C@H]9C(=O)N[C@H]7C(=O)N[C@H](C(=O)N[C@H](C(=O)O)c9cc(O)cc(O)c9-c9cc7ccc9O)[C@H](O)c7ccc(c(Cl)c7)O8)OC(CO)C(O)C6O)OC(C)C5O)cc4C)c(C)c3)C(O)C(C)O2)Oc2ccc(cc2Cl)[C@H]1O (some centres undefined)	513 µg·h/mL	120 mg/mL (≈ 33.6 mM)	29.3 µg/mL		> 24 h		100%		20 h	3.598 L/kg	12.37 h	1.63 mL/min/kg		
O=C(O)COCCO		128 mg/mL (≈ 1070 mM)							> 24 h					
CN[C@H](CC(C)C)C(=O)N[C@H]1C(=O)N[C@@H](CC(N)=O)C(=O)N[C@H]2C(=O)N[C@H]3C(=O)N[C@H](C(=O)N[C@H](C(=O)O)c4cc(O)cc(O)c4-c4cc3ccc4O)[C@H](O)c3ccc(c(Cl)c3)Oc3cc2cc(c3O[C@@H]2O[C@H](CO)[C@@H](O)[C@H](O)[C@H]2O[C@H]2C[C@](C)(N)[C@H](O)[C@H](C)O2)Oc2ccc(cc2Cl)[C@H]1O [VANCOMYCIN]	78.8 µg·h/mL		162 µg/mL	0.309 L/kg		0.34 h	100%						0%	10.7 mL/min/kg
CN[C@H](CC(C)C)C(=O)N[C@H]1C(=O)N[C@@H](CC(N)=O)C(=O)N[C@H]2C(=O)N[C@H]3C(=O)N[C@H](C(=O)N[C@H](C(=O)O)c4cc(O)cc(O)c4-c4cc3ccc4O)[C@H](O)c3ccc(c(Cl)c3)Oc3cc2cc(c3OC2OC(CO)C(O)C(O)C2OC2CC(C)(NC(=O)OCc3cc(C)c(OC(=O)COCCO)c(C)c3)C(O)C(C)O2)Oc2ccc(cc2Cl)[C@H]1O (some centres undefined)		131 mg/mL (≈ 75.7 mM)			6.6 h		100%		2 h					
CN[C@H](CC(C)C)C(=O)N[C@H]1C(=O)N[C@@H](CC(N)=O)C(=O)N[C@H]2C(=O)N[C@H]3C(=O)N[C@H](C(=O)N[C@H](C(=O)O)c4cc(O)cc(O)c4-c4cc3ccc4O)[C@H](O)c3ccc(c(Cl)c3)Oc3cc2cc(c3OC2OC(CO)C(O)C(O)C2OC2CC(C)(NC(=O)OCc3cc(C)c(OC(=O)NCCOCCO)c(C)c3)C(O)C(C)O2)Oc2ccc(cc2Cl)[C@H]1O (some centres undefined)	717 µg·h/mL	141 mg/mL (≈ 80.2 mM)	54.6 µg/mL	1.65 L/kg	> 24 h	9.12 h	90%	1.17 mL/min/kg	> 24 h					
